Earlier results in patent publication US5707620A (priority 1995, dated 1998).

Tested on: hemagglutinins
Settings: cited from earlier work

SMILES	inhibition of activity of hemagglutinins
N=C(N)NCCC[C@H](N)C(=O)O [arginine]	inhibited by arginine
NCCCC[C@H](N)C(=O)O [lysine]	to a lesser extent, lysine
